Data set [1] relates to EL4 cells. Description: EL4 cytotoxicity, MTT assay. It is filed as cell-based. As for the experimental part:
EL4 Cytotoxicity. EL4 cells (ATCC, Rockville, Md.) were plated at 10 k cells per well in a 96-well plate. The plated cells were treated in triplicate for 24, 48, or 72 hours with a range of concentrations of 0.001 μg/mL DOX or DOX equivalent to 10 μg/mL, followed by cellular viability analysis via MTT assay. Cells were incubated at 37° C., 5% CO2, and 100% humidity.
EL4 cells were treated in triplicate for 24, 48, and 72 hours with a range of concentrations, followed by cellular viability analysis via an MTT assay.

A short description of data set [2]: Pharmacokinetics in EL4-challenged C57BL/6 mice. The data set is classed as in vivo. Here is the method: Pharmacokinetics. […] Blood samples were collected from the saphenous vein of the mice at each time point, spun down in a serum collection tube, and the resultant supernatant was analyzed in acidified alcohol for DOX fluorescence using the Multi-Mode reader.
The mice were 6-8-week-old female mice.

A short description of data set [3]: Complete blood count and liver enzyme panel. It is filed as in vivo. The note with it: 20 mg/kg DOX or DOX equiv., tail vein, 24 h p.i., C57BL/6 mice, n=3. Here is the method:
Hematotoxicity and Liver Enzyme Panel. The mice used in this study were 6-12 week-old female C57BL/6/027 mice (Charles River Laboratories, Wilmington, Mass., USA). The mice were administered treatment via tail vein injection. After 24 h, complete blood count (CBC), and liver enzyme levels were measured. Blood for CBC was collected by saphenous vein collection, mixed with EDTA, and analyzed with a hematology analyzer for white blood cells (WBC), red blood cells (RBC), hemoglobin (Hgb), platelets (Plt) and hematocrit (HCT). For the liver enzyme panel, serum was isolated from blood and sent to IDEXX Laboratories, Inc. (Westbrook, Me.) for alkaline phosphatase (ALP), aspartate aminotransferase (AST), alanine aminotransferase (ALT), and total bilirubin analysis.
Complete blood count and liver enzyme panel of DOX/DNA and DOX. A complete blood count and liver enzyme panel were conducted in C57BL/6 mice treated with 20 mg/kg DOX, 20 mg/kg DOX equiv. of DOX/DNA, PBS, or 120 mg/kg DNA, n=3. […] After 24 h p.i., complete blood count (CBC), and liver enzyme levels were measured. Blood was collected by saphenous vein collection, mixed with EDTA, and analyzed with a hematology analyzer for white blood cells (WBC), red blood cells (RBC), hemoglobin (Hgb), platelets (Plt) and hematocrit (HCT). […]

In data set [4] the test system is EL4 cells. The experiment in a line: Endocytosis inhibition, EL4 cellular uptake. It is filed as cell-based. The note with it: inhibitors CPZ, Filipin III, EIPA, NaN3, PS2 or 4° C., 1 hour treatment. As for the experimental part:
Endocytosis Inhibition. EL4 DOX uptake from DOX or DOX/DNA treatment after exposure to inhibitors NaN3 (120 mM), PS2 (12 μg/mL), Filipin III (5 μg/mL), CPZ (20 μM), EIPA […], or 4° C. was measured using flow cytometry or spectrofluorimetry. Briefly, cells were primed for 15 minutes with the inhibitors before being treated for 1 hour with DOX or DOX/DNA. Cells containing DOX or DOX/DNA were counted with the flow cytometer using yellow fluorescence, and cells containing DOX/DNA were counted using spectrofluorimetry. Fluorescence was measured using a Guava® easyCyte™ Flow Cytometer (Millipore Sigma, Burlington, Mass.) or the Multi-Mode reader (Biotek Instruments, Winooski, Vt.).
Endocytosis inhibition and the effect on DOX/DNA and DOX uptake. The effect of inhibitors CPZ (20 μM), Fillipin III […], EIPA (20 μM), and various combinations thereof, or 4° C. on EL4 cellular uptake was evaluated for DOX/DNA (see FIG. 22). Chlorpromazine (CPZ) is a clathrin-dependent pathway inhibitor. […] The concentrations chosen for the assay were determined using a dose-response assay for each inhibitor.
DOX uptake by EL4 cells was tested with inhibitors: NaN3 (120 mM), PS2 (12 μg/mL), Filipin III (5 μg/mL), EIPA (20 μM), and 4° C. Uptake was measured using flow cytometry. […] Cells containing DOX were counted with the flow cytometer using yellow fluorescence.

The nature of data set [5]: Titration of DOX, DNA and DOX/DNA. It is filed as physicochemical. Here is the method: Titration of DOX, DNA, and DOX/DNA using a weak base. DOX, DNA or DOX/DNA were made in water at an initial volume of 1 mL. DOX equiv. at 600 μg/mL. The pH was then brought down below 2 with 1 M HCl, then the pH was adjusted higher using small volumes (100 μL or 20 μL) of 0.1 M NaOH.

A short description of data set [6]: Acute toxicity survival in C57BL/6 mice. The note with it: 40 mg/kg dose, n=7.
A short description of data set [7]: Stability of DNA in water and PBS (TEM). The data set is classed as physicochemical. The conditions noted are these: [DNA] 6 μg/mL. Here is the method:
Stability of DNA in water and PBS. DNA was prepared in PBS and diluted in H2O and then imaged. Final [DNA]=6 μg/mL.

A short description of data set [8]: DNA degradation in 10% FBS/PBS (agarose gel). The data set is classed as physicochemical. The note with it: 37° C., 0 to 48 h, [DNA] 100 μg/mL. As for the experimental part:
DNA Degradation in 10% FBS/PBS. A 1% (w/v) agarose gel in 1×Tris Acetate EDTA (TAE) containing 1 μg/mL ethidium bromide was used to characterize the degradation of DNA in 10% FBS/PBS over 48 hours. DNA was incubated with serum-containing PBS at 37° C. over time. Samples were stored in −20° C. to stop enzymatic degradation from nucleases at each time point. The concentration of DNA=100 μg/mL. The gel was run at 100 V for 40 minutes and DNA was imaged on a UV transilluminator (Fotodyne, Heartland, Wis.).
DNA Degradation in 10% FBS/PBS. To determine the stability of the DNA to serum exposure, DNA (100 μg/mL) was incubated with serum-containing PBS at 37° C. over a time period of 0 to 48 h. Samples were stored in −20° C. to stop enzymatic degradation from nucleases at each time point. […] It is likely that the nucleases in the serum-containing media are contributing to the degradation of DNA. It is possible to infer a delayed release of DOX due to this degradation of DNA overtime in 10% FBS.

Entries after “also recorded” stand apart in the source; their conditions may differ. Read-outs that look alike come from different tables or passages of the source.

Usually IC50 stands for the concentration that inhibits the measured activity by half. As for Doxorubicin, the IC50 came out at 0.313 µg/mL with EL4 cells [1] (24 h incubation); 576 nM in the data set on EL4 cells [1] (24 h incubation, read-out: IC50); 0.093 µg/mL in the data set with EL4 cells [1] (48 h incubation); 0.048 µg/mL in the data set on EL4 cells [1] (72 h incubation). Besides, in data set [2] (20 mg/kg DOX or DOX equiv. i.v., n=3), the “Blood circulation residence half-life T1/2” value amounted to 3 min. In addition, the “Time of absorption by the tissue” value in data set [2] (20 mg/kg i.v.) is roughly 15 min. In data set [3], the “Effect on circulating blood cells and liver enzymes” value is recorded as “greater impact”. For the same substance, in the data set on EL4 cells [4], the Cellular uptake pathway result is “primarily via membrane fusion”. The “pKa (amine)” value in data set [5] is 8.46. For the same substance, in data set [5], the “pKa (estimated)” value was 9.46. Further, the “pKa (phenol)” value in data set [5] was 7.34. Further, the Acute toxicity entry in data set [6] is recorded as “acute toxicity (cardiac arrest)”.

On to Deoxyribonucleic acid [DNA], for which the “Stability in water or PBS” value in data set [7] is given as “largely stable”. Further, the Degradation in serum result in data set [8] is recorded as “degraded serum in a time dependent manner; also recorded: degraded overtime”.

Values taken from patent publication US20220331433A1, “NUCLEIC ACID-MEDIATED DELIVERY OF THERAPEUTICS” (The Regents of the University of California, priority 2019, published 2022).
